Experimental data reported in US10669272B2, “Substituted naphthyridinone compounds useful as T cell activators” (BRISTOL-MYERS SQUIBB COMPANY, priority 2018, dated 2020).
pEC50, pIC50: −log10 of the molar value. Read-outs that look alike come from different tables or passages of the source.

Columns and labels:
[1] = target: T1, human DGKα (Homo sapiens, UniProt P23743); experiment: DGKα LIPGLO assay (extruded liposome substrate), in vitro DGK inhibition; assay type: biochemical; conditions: read-out: DGKa LIPGLO IC50
T1 construct: TVMV protease cleavage site (C); Hexa-His (C); made in house; host or cells: Sf9 insect cells (baculovirus, Bac-to-Bac)

[2] = target: T2, human DGKζ (Homo sapiens, UniProt Q13574); experiment: DGKζ LIPGLO assay (extruded liposome substrate), in vitro DGK inhibition; assay type: biochemical; conditions: read-out: DGKz LIPGLO IC50
T2 construct: TVMV protease cleavage site (C); Hexa-His (C); made in house; host or cells: Sf9 insect cells (baculovirus, Bac-to-Bac)

[3] = test system: Human venous whole blood; experiment: Human whole blood IFN-γ assay; assay type: cell-based; conditions: human whole blood, read-out: INFg Whole Blood Normalized Agonist EC50;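 also: blood from healthy donors exposed to compound for 1 h before stimulation with anti-CD3 and anti-CD28 at 1 µg/mL each, IFN-γ quantified in supernatant by AlphaLISA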
Method: Human Whole Blood IFN-γ Assay
Human venous whole blood (22.5 μL per well), obtained from healthy donors, was pre-treated with compounds for one hour at 37° C. in a humidified 95% air/5% CO2 incubator. The blood was stimulated with 2.5 μL anti-human CD3 and anti-CD28 mAb at a final concentration of 1 μg/mL each for 24 hours at 37° C. IFN-γ in the supernatants was measured using AlphLISA kit (Cat # AL217).

[4] = Homo sapiens, 24 h, anti-CD3 plus anti-CD28, 24 hours, 3 μM reference compound = 100% activation
[5] = anti-CD3 plus anti-CD28, 24 hours, 3 μM reference compound = 100% activation
[6] = Homo sapiens, 24 h, normalized to 3 μM reference compound with anti-CD3 plus anti-CD28 as 100% activation
[7] = normalized to 3 μM reference compound with anti-CD3 plus anti-CD28 as 100% activation

T1 sequence (P23743 with tags, fused parts or gaps): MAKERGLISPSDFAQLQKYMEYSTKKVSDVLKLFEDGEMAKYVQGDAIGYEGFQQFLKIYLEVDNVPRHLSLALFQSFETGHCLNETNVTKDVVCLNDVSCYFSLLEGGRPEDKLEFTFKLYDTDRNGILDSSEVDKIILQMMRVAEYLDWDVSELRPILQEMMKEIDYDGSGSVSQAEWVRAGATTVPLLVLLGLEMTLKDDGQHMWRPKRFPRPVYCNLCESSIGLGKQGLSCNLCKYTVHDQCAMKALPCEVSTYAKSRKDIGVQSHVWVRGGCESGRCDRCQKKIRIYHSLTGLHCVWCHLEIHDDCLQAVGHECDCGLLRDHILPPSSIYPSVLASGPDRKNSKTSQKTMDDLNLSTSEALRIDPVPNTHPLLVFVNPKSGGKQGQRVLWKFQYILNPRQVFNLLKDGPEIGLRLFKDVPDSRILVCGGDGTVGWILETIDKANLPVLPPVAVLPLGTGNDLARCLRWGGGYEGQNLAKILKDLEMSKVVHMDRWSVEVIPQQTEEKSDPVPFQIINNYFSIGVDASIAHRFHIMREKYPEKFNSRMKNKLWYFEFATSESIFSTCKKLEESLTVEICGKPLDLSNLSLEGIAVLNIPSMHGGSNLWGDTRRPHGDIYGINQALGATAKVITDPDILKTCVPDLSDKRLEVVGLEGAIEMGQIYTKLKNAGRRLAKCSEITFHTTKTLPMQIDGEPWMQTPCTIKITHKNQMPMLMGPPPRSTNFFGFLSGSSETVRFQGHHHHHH
T2 sequence (Q13574 with tags, fused parts or gaps isoform Q13574-4): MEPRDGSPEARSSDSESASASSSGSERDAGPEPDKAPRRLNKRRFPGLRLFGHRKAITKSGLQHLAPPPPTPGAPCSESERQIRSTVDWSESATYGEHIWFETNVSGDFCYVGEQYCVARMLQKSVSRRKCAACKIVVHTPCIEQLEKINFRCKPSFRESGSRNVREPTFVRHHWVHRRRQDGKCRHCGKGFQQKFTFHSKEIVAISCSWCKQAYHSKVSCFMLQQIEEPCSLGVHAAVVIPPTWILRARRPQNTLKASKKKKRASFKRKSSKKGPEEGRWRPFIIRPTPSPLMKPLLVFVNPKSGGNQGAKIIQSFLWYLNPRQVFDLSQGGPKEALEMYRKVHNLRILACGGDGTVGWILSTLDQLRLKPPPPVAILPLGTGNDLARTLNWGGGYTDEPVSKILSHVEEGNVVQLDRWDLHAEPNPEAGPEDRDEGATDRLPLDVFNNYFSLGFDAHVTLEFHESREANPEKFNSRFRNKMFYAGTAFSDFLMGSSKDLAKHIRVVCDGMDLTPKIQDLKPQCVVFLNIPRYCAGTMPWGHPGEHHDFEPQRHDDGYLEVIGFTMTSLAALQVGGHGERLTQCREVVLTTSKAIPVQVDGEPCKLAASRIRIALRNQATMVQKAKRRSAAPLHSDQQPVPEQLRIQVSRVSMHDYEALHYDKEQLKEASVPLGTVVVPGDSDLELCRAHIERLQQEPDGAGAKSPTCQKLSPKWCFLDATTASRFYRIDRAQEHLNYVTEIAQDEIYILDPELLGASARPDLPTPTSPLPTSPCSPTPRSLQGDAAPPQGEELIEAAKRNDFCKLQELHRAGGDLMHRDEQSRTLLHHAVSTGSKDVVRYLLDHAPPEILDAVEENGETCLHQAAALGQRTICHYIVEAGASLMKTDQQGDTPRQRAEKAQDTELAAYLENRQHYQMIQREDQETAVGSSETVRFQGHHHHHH

Structure (SMILES)	pIC50 ([1]; DGKα liposome (LIPGLO) assay)	pIC50 ([2]; DGKζ liposome (LIPGLO) assay)	pEC50 [3, 4]	pEC50 [3, 5]	pIC50 ([1]; liposome (LIPGLO) assay)	pIC50 ([2]; liposome (LIPGLO) assay)	pEC50 [3, 6]	pEC50 [3, 7]
C[C@@H]1CN(c2c(C#N)c(=O)n(C)c3ccc(C#N)nc23)CCN1Cc1ccc2ccccc2n1 [Example 992]	5.89	5.49	5.24					
C[C@@H]1CN(c2c(C#N)c(=O)n(C)c3ccc(C#N)nc23)CCN1Cc1ccc(F)cc1Cl [Example 993]	5.89	5.41	5.42					
C[C@@H]1CN(c2c(C#N)c(=O)n(C)c3ccc(C#N)nc23)CCN1Cc1ccc(-c2ccccc2)cc1 [Example 994]	5.19	3.96	4.70					
Cc1cc(CN2CCN(c3c(C#N)c(=O)n(C)c4ccc(C#N)nc34)C[C@H]2C)ccc1F [Example 995]	5.49	5.25	5.60					
C[C@@H]1CN(c2c(C#N)c(=O)n(C)c3ccc(C#N)nc23)CCN1Cc1ccc(Cl)c(Cl)c1 [Example 996]	5.39	5.24	4.70					
C[C@@H]1CN(c2c(C#N)c(=O)n(C)c3ccc(C#N)nc23)CCN1Cc1ccccc1Cl [Example 997]	5.96	5.48	4.70					
Cc1cc(C)cc(CN2CCN(c3c(C#N)c(=O)n(C)c4ccc(C#N)nc34)C[C@H]2C)c1 [Example 1000]	5.57	5.21	5.40					
Cc1ccc(F)cc1CN1CCN(c2c(C#N)c(=O)n(C)c3ccc(C#N)nc23)C[C@H]1C [Example 1001]	5.82	5.34	5.33					
Cc1ccc(CN2CCN(c3c(C#N)c(=O)n(C)c4ccc(C#N)nc34)C[C@H]2C)cc1F [Example 1002]	5.57	5.33	5.26					
C[C@@H]1CN(c2c(C#N)c(=O)n(C)c3ccc(C#N)nc23)CCN1Cc1cccc(C(F)(F)F)c1 [Example 1003]	5.55	5.41	4.70					
C[C@@H]1CN(c2c(C#N)c(=O)n(C)c3ccc(C#N)nc23)CCN1Cc1cccc(-c2ccccc2)c1 [Example 1004]	5.41	4.96	5.46					
C[C@@H]1CN(c2c(C#N)c(=O)n(C)c3ccc(C#N)nc23)CCN1Cc1cccc(F)c1 [Example 1005]	6.06	5.11	4.70					
Cc1ccc(F)c(CN2CCN(c3c(C#N)c(=O)n(C)c4ccc(C#N)nc34)C[C@H]2C)c1 [Example 1006]	5.59	5.15	4.96					
C[C@@H]1CN(c2c(C#N)c(=O)n(C)c3ccc(C#N)nc23)CCN1Cc1ccccc1C#N [Example 1009]	5.74	5.17	4.70					
Cc1c(F)cccc1CN1CCN(c2c(C#N)c(=O)n(C)c3ccc(C#N)nc23)C[C@H]1C [Example 1010]	5.74	6.00	5.70					
C[C@@H]1CN(c2c(C#N)c(=O)n(C)c3ccc(C#N)nc23)CCN1Cc1ccc(Cl)cc1 [Example 1011]	5.92	5.08	4.70					
C[C@@H]1CN(c2c(C#N)c(=O)n(C)c3ccc(C#N)nc23)CCN1Cc1ccc(C(C)(C)C)cc1 [Example 1013]	5.14	4.33	5.85					
C[C@@H]1CN(c2c(C#N)c(=O)n(C)c3ccc(C#N)nc23)CCN1Cc1ccccc1C(F)(F)F [Example 1014]	5.89	5.72	4.70					
C[C@@H]1CN(c2c(C#N)c(=O)n(C)c3ccc(C#N)nc23)CCN1Cc1ccc(Cl)c(F)c1 [Example 1015]	5.85	5.09	5.57					
C[C@@H]1CN(c2c(C#N)c(=O)n(C)c3ccc(C#N)nc23)CCN1C(c1ccc(F)cc1)c1cnn(C)c1 (stereo partly drawn) [Example 1016]	5.48	5.12	5.48					

Structure (SMILES)	pIC50 ([1]; DGKα liposome (LIPGLO) assay)	pIC50 ([2]; DGKζ liposome (LIPGLO) assay)	pEC50 [3, 4]	pEC50 [3, 5]	pIC50 ([1]; liposome (LIPGLO) assay)	pIC50 ([2]; liposome (LIPGLO) assay)	pEC50 [3, 6]	pEC50 [3, 7]
C[C@@H]1CN(c2c(C#N)c(=O)n(C)c3ccc(C#N)nc23)CCN1C(c1ccc(F)cc1)c1cnn(C)c1 (stereo partly drawn) [Example 1017]	5.14	5.08		5.48				
C[C@@H]1CN(c2c(C#N)c(=O)n(C)c3ccc(C#N)nc23)CCN1C(c1ccc(F)cc1)c1cocn1 (stereo partly drawn) [Example 1022]	5.54	4.92	5.60					
C[C@@H]1CN(c2c(C#N)c(=O)n(C)c3ccc(C#N)nc23)CCN1C(c1ccc(F)cc1)c1cocn1 (stereo partly drawn) [Example 1023]	5.44	4.89		5.46				
C[C@@H]1CN(c2c(C#N)c(=O)n(C)c3ccc(C#N)nc23)CCN1C(c1ccc(F)cc1)c1cnsc1 (stereo partly drawn) [Example 1028]					5.82	5.15	5.55	
CC[C@H]1CN(C(c2ccc(Cl)cc2)c2ccc(Cl)cc2)[C@H](CC)CN1c1cc(=O)n(C)c2ccc(C#N)nc12 [Example 1032]					6.51	6.55	6.55	
CC[C@H]1CN(C(c2ccc(F)cc2)c2ccc(C#N)cc2)[C@H](CC)CN1c1cc(=O)n(C)c2ccc(C#N)nc12 (stereo partly drawn) [Example 1035]					6.43	5.96	6.54	
CC[C@H]1CN(C(c2ccc(F)cc2)c2ccc(C#N)cc2)[C@H](CC)CN1c1cc(=O)n(C)c2ccc(C#N)nc12 (stereo partly drawn) [Example 1036]					6.52	6.28		6.70
CC[C@H]1CN(C(c2ccc(F)cc2)c2ccc(C(F)(F)F)cn2)[C@H](CC)CN1c1cc(=O)n(C)c2ccc(C#N)nc12 (stereo partly drawn) [Example 1039]					6.96	7.06	7.04	
CC[C@H]1CN(C(c2ccc(F)cc2)c2ccc(C(F)(F)F)cn2)[C@H](CC)CN1c1cc(=O)n(C)c2ccc(C#N)nc12 (stereo partly drawn) [Example 1040]					7.38	7.23		7.24
CC[C@H]1CN(C(c2cccc(F)c2)c2ccc(OC)cn2)[C@H](CC)CN1c1cc(=O)n(C)c2ccc(C#N)nc12 (stereo partly drawn) [Example 1048]					7.08	6.82	6.72	
CC[C@@H]1CN(c2cc(=O)n(C)c3ccc(C#N)nc23)[C@@H](CC)CN1Cc1ccc(F)cc1F [Example 1062]					7.24	7.12	6.96	
CC[C@@H]1CN(c2cc(=O)n(C)c3ccc(C#N)nc23)[C@@H](CC)CN1Cc1ccc2c(c1)OC(F)(F)O2 [Example 1063]					5.96	5.74	6.37	
CC[C@H]1CN(C(c2ccc(F)cc2)c2nc(C3CC3)cs2)[C@H](CC)CN1c1cc(=O)n(C)c2ccc(C#N)nc12 (stereo partly drawn) [Example 1067]					7.10	7.33	7.96	
CC[C@@H]1CN(c2cc(=O)n(C)c3ccc(C#N)nc23)[C@@H](C)CN1Cc1ccccc1 [Example 1076]					6.96	6.00	5.77	
CC[C@@H]1CN(c2cc(=O)n(C)c3ccc(C#N)nc23)[C@@H](C)CN1Cc1ccc(F)cc1F [Example 1077]					6.34	6.49	6.85	
CC[C@@H]1CN(c2cc(=O)n(C)c3ccc(C#N)nc23)[C@@H](C)CN1Cc1ccc(F)cc1Cl [Example 1078]					5.57	6.96	6.01	
CC[C@@H]1CN(c2cc(=O)n(C)c3ccc(C#N)nc23)[C@@H](C)CN1Cc1ccc(F)cc1 [Example 1079]					7.55	7.05	6.19	
CC[C@@H]1CN(c2cc(=O)n(C)c3ccc(C#N)nc23)[C@@H](C)CN1Cc1c(F)cc(F)cc1F [Example 1080]					6.19	6.16	6.62	
CC[C@@H]1CN(c2cc(=O)n(C)c3ccc(C#N)nc23)[C@@H](C)CN1Cc1ccc(OC(F)(F)F)cc1OC [Example 1081]					5.82	6.17	6.60	
